Source: patent EP0778023B1, “Product comprising rapamycin or particular derivatives and an NMDA or AMPA antagonist for use for the treatment of epilepsy or Huntington's Disease, and the use of rapamycin or particular derivatives for the manufacture of a medicament for the treatment of epilepsy or Huntington's Disease” (Wyeth, priority 1995, dated 1997)

What was measured:
Cortical neurons = assay: ischemia induced neurotoxicity in cortical cultures with NMDA and AMPA inhibitors, LDH activity; type: cell-based, rat; settings: 1 week old cortical cell cultures
Method: (§1) Briefly, rat hippocampal and cortical cultures were prepared according to the method of Furshpan and Potter with some modifications. [Neuron 3:199 (1989)]. Brains were removed from newborn Long Evans pups anesthetized with an injection of 0.1 ml of 20% chloral hydrate. The hippocampi were dissected out and separated from the rest of the cortex. Both tissues were enzymatically digested in 5 ml Earle's Balanced Salt Solution (EBSS) containing 20 u/ml papain, 1 mM L-cysteine, and 0.5 mM EDTA for 30 minutes at 37°C with gentle rocking. The hippocampi and cortical tissues were then washed once with EBSS and the digestion was stopped by incubating at 37°C for 30 minutes with 3-5 mis of inhibitor solution containing 1 mg/ml ovomucoid and 1 mg/ml albumin in EBSS. The digested hippocampi and cortical tissues were washed twice with DME without L-glutamine with 4.5 g/L dextrose before being triturated in 2 ml of DME supplemented with 5% fetal calf serum, 5% rat serum, 50 u/ml penicillin, 0.05 mg/ml streptomycin and MlTO+ serum extender [a medium supplement from Collaborative Biomedical Products] (10% DME). After 50 triturations, undissociated tissue was allowed to settle and the dissociated cell suspension was removed. A fresh 2 ml of 10% DME was added to the remaining tissue and the trituration was repeated. The two cell suspension aliquots were pooled and the cell density was determined with a hemacytometer.
(§2) 30,000 hippocampal cells in 150 µL were plated per well in 96-well plates and incubated at 37°C in 5% CO2. Cortical cells were plated at a density of 500,000 cells per well in 24-well plates. When glia cells were confluent (after approximately 3 days), 4-10 µM cytosine β-D-arabinofuranoside was added to each well to prevent further proliferation. One week after plating, the medium was removed and replaced with DME supplemented with 2.5% fetal calf serum, 2.5% rat serum, 50 u/ml penicillin, 0.05 mg/ml streptomycin, MITO+, 1 mM kynurenate and 10 mM MgCl2 (5% DME + KM). Kynurenate is a nonspecific blocker of glutamate receptors and elevated levels of magnesium block calcium and sodium influx through NMDA receptor channels. The addition of KM prevents neurotoxicity that occurs with glutamate found in serum, and allows neurons to be maintained in culture for up to several months. The cells were fed weekly by exchanging half the medium with fresh 5% DME + KM.
Cortical neurons were washed six times with DME without glucose that has been deoxygenated by bubbling the medium with 95% N2/5% CO2 for at least 10 minutes, to induce an ischemic state that will cause neuronal cell death that can be observed by measuring lactate dehydrogenase levels, as the amount of LDH activity in each well is directly correlated with the number of dead cells. 100 µM [2-(8,9-Dioxo-2,6-diazabicyclo[5.2.0]non-1(7)-en-2-yl)-ethyl]-phosphonic acid (disclosed in U.S. Patent 5,168,103 and 10 µM YM90K were added to certain wells to block NMDA and AMPA glutamate receptors, respectively. To test wells, 1 µM of the compound of Example 1 was added. Control wells were washed with normal DME with glucose and 100 µM [2-(8,9-dioxo-2,6-diazabicyclo[5.2.0]non-1(7)-en-2-yl)ethyl]phosphonic acid. 5 µL samples were taken from each well at different time points following ischemia and the LDH activity in those samples was determined by adding 250 µL of 2 mg NADH/25 mL phosphate buffer to each sample. After incubating for 20-30 minutes, 10 µL of 22.7 mM pyruvate was added and the optical density (OD) at 340 nm read. The change in optical density with time (mOD/min) reflects the amount of LDH in the sample. Higher optical density changes means more LDH activity indicating more cell death. Samples were taken from 4-8 wells per condition and the average and standard deviation for each condition and time point determined.

[1] = test system: rat hippocampal and cortical cultures (hippocampal neurons); assay: glutamate induced toxicity in hippocampal cultures, count of live neurons; type: cell-based; settings: 30 µM glutamate
Method: as §1, §2
The compound to be evaluated was dissolved in DMSO to make 10 mM stock solutions and stored in aliquots at -80°C. Just before each procedure was carried out, aliquots of the stock solutions were thawed and diluted in DME or Hanks' Balanced Salt Solution (HBSS) containing 44 mM sodium bicarbonate, 10 mM glucose, and 30 µM glutamate to obtain test concentrations from 1 nM to 10 µM.
After 4-12 weeks in culture, hippocampal cells were washed three times and fed with test compound in HBSS, or serum free DME (SF DME) and 30 to 150 µM glutamate. At least three wells in every test procedure were treated with each drug concentration. 30 µM Glutamate kills 70-80% of the neurons in younger cultures, and more in older cultures. The toxicity induced by 30 µM glutamate was blocked by 1 mM kynurenate + 10 mM MgCl2 (KM).
Following overnight incubation at 37°C, the number of live hippocampal neurons remaining in five fields, representing the north, south, east, and west extremes and the center of each well, were counted. Each field was visualized through a 10x objective with a 15x eyepiece and was approximately 1.54 mm^2 in area. Conditions were generally done in triplicate. The mean number of neurons per well and the standard deviation for each condition were calculated. The mean number of neurons remaining in the control 30 µM glutamate condition reflects those that were not sensitive to glutamate toxicity.

[2] = Time 8 hours, test compound administered with the NMDA and AMPA inhibitors
[3] = Time 13 hours, with the NMDA and AMPA inhibitors
[4] = Time 24 hours, with the NMDA and AMPA inhibitors
[5] = Time 30 hours, with the NMDA and AMPA inhibitors
[6] = 2 nM test compound, HBSS, overnight incubation
[7] = 20 nM test compound, HBSS, overnight incubation
[8] = 200 nM test compound, HBSS, overnight incubation

Compound: CO[C@H]1C[C@@H]2CC[C@@H](C)[C@@](O)(O2)C(=O)C(=O)N2CCCC[C@H]2C(=O)O[C@H]([C@H](C)C[C@@H]2CC[C@@H](OS(=O)(=O)c3ccc(N=Nc4ccc(N(C)C)cc4)cc3)[C@H](OC)C2)CC(=O)[C@H](C)/C=C(\C)[C@@H](O)[C@@H](OC)C(=O)[C@H](C)C[C@H](C)/C=C/C=C/C=C/1C [Example 3, Rapamycin 42-ester with 4-[[4-(dimethylamino)phenyl]azo]benzenesulfonic acid]
- LDH Activity (Cortical neurons; [2]): 0.84 mOD/min
- LDH Activity (Cortical neurons; [3]): 2.36 mOD/min
- LDH Activity (Cortical neurons; [4]): 7.03 mOD/min
- LDH Activity (Cortical neurons; [5]): 11.25 mOD/min
- No. Neurons Alive [1, 6]: 98
- No. Neurons Alive [1, 7]: 285
- No. Neurons Alive [1, 8]: 241

Compound: Rapamycin 1,3-Diels Alder adduct with methyltriazolinedione [Example 4]
- LDH Activity (Cortical neurons; [2]): 0.91 mOD/min
- LDH Activity (Cortical neurons; [3]): 2.54 mOD/min
- LDH Activity (Cortical neurons; [4]): 8.21 mOD/min
- LDH Activity (Cortical neurons; [5]): 13.31 mOD/min
- No. Neurons Alive [1, 6]: 117
- No. Neurons Alive [1, 7]: 130
- No. Neurons Alive [1, 8]: 157

Compound: Rapamycin-O-benzyl-27-oxime [Example 5]
- LDH Activity (Cortical neurons; [2]): 0.74 mOD/min
- LDH Activity (Cortical neurons; [3]): 1.65 mOD/min
- LDH Activity (Cortical neurons; [4]): 4.82 mOD/min
- LDH Activity (Cortical neurons; [5]): 8.83 mOD/min
- No. Neurons Alive [1, 6]: 131
- No. Neurons Alive [1, 7]: 96
- No. Neurons Alive [1, 8]: 135

Compound: CO[C@H]1C[C@@H]2CC[C@@H](C)[C@@](O)(O2)C(=O)C(=O)N2CCCC[C@H]2C(=O)O[C@H]([C@H](C)C[C@@H]2CC[C@@H](O)[C@H](OC)C2)CC(=O)[C@H](C)/C=C(\C)[C@@H](O)[C@@H](OC)C(=O)[C@H](C)C[C@H](C)/C=C/C=C/C=C/1C [Example 1, Rapamycin]
- LDH Activity (Cortical neurons; [2]): 1.04 mOD/min
- LDH Activity (Cortical neurons; [3]): 3.08 mOD/min
- LDH Activity (Cortical neurons; [4]): 9.00 mOD/min
- LDH Activity (Cortical neurons; [5]): 14.02 mOD/min
- No. Neurons Alive [1, 6]: 63
- No. Neurons Alive ([1]; 10nM test compound, SF DME, overnight incubation, mean per well (five fields)): 114
- No. Neurons Alive [1, 7]: 71
- No. Neurons Alive ([1]; 100nM test compound, SF DME, overnight incubation): 92
- No. Neurons Alive [1, 8]: 229
- No. Neurons Alive ([1]; 1µM test compound, SF DME, overnight incubation): 46
- No. Neurons Alive ([1]; 10µM test compound, SF DME, overnight incubation): 47

Compound: O=C(O)c1cc(O)c2ccccc2n1 [Kynurenate, kynurenate, reference compound]
- No. Neurons Alive ([1]; 1 mM, HBSS, overnight incubation (second table)): 202
- No. Neurons Alive ([1]; 1 mM, SF DME, overnight incubation (first table)): 82

Compound: Rapamycin 1,3, Diels Alder adduct with Phenyltriazolinedione [Example 2]
- LDH Activity (Cortical neurons; [2]): 1.08 mOD/min
- LDH Activity (Cortical neurons; [3]): 2.31 mOD/min
- LDH Activity (Cortical neurons; [4]): 7.69 mOD/min
- LDH Activity (Cortical neurons; [5]): 12.43 mOD/min
- No. Neurons Alive [1, 6]: 110
- No. Neurons Alive [1, 7]: 180
- No. Neurons Alive [1, 8]: 127
